The numbers were not newly measured in patent US20030232858A1, “Use of hydroxyeicosatetraenoic acid compounds to treat dry mouth” (priority 2002, published 2003), which cites them from elsewhere.

Regarding `CCCCC[C@H](O)/C=C/C=C\C/C=C\C/C=C\CCCC(=O)O` [15-HETE, 15-Hydroxyeicosatetraenoic acid], the effect on psoriasis entry in the data set with psoriatic skin lesions (injected into psoriatic skin lesions) is on record as “can improve psoriasis”. Besides, the “concentration required to cause a clinical effect” value with psoriatic skin lesions (intralesional injection, 0.1 ml) was 10 µmol/L. The “amount required to cause a clinical effect” value in the data set with psoriatic skin lesions (intralesional injection, 0.1 ml of 10 μmol/L) is on record as 300 ng. Moreover, in the data set with colitis, the “anti-inflammatory properties in colitis” value was “minor anti-inflammatory properties”. Further, the “effects on leukotriene B4 production or its activity” value with leukotriene B4 is on record as “inhibitory effects”.
